Patent US20060240117A1, “Snake powder extract for treatment of cancer” (priority 2002, published 2006)

How the values were obtained:
tumor cell lines = test: Tumor cell proliferation, oxygen biosensor; assay type: cell-based; settings: DMSO, ethanol and PBS extracts; FIGS. 6, 7, 8
Procedure: The following cell lines were utilized in the tests listed above: • Leukemia/Lymphoma: K562, Raji, Jurkatt, CEM; • Breast Carcinoma MCF-7, MDA-MB-231, MD-MB-468; • Prostate Carcinoma LNCaP, PC-3; • Colorectal Carcinoma: HT-29, HCT-116; • Pancreatic Carcinoma: PANC-1; • Gliobastaoma: GL10-1.
The DMSO and ETHANOL extract was prepared by the following process: • 4 g of powder was extracted with each • the extract was evaporated utilizing a speed vacuum centrifuge • when dried the extract was re-suspended in fresh solution at 1 g/ml. • the concentration of extract used ranges from 0.1 to 100 mg/ml
The PBS solution was prepared as follows: • dissolve 1 g/ml of powder within PBS solution • the concentration of extract used ranges from 0.1 to 100 mg/ml
Referring to FIGS. 6, 7, and 8 the effect of snake extract on tumor cell proliferation utilizing the DMSO, ethanol, and PBS solutions, is respectively analyzed. The methodology used to analyze tumor cell proliferation was oxygen biosensor. With this methodology culture plates are coated with an oxygen sensitive fluorescent compound embedded in a gas-permeable and hydrophobic matrix permanently attached to the bottom of a multi-well plate. The amount of fluorescence correlates directly to the rate of oxygen consumption in the well, providing a signal that can be directly correlated to cell growth.

Artemia salina nauplii = test: Brine shrimp lethality assay; assay type: in vivo; settings: 24 h, 27-28° C., triplicate
Procedure: The eggs of brine shrimp, Airtime salina (Leach), are used in monitoring bioactive compounds. The eggs are readily available in pet shops at low cost and remain viable for years in the dry state. The brine shrimp assay has advantages of being rapid (24 hrs), inexpensive, and simple. No aseptic techniques are required. It easily utilizes a large number of organisms for statistical validation and requires no special equipment and a relatively small amount of sample.
The assay was carried out with Artemia salina eggs. 50 mg of Artemia salina eggs in a beaker containing sea salt (6 g), yeast (0.9 mg) and distilled water (150 ml) were incubated at 27-28° C. for 24 hrs. The newly hatched nauplii were concentrated. From this volume, aliquots of 50 μl (approximately 18-20 nauplii) were pipette directly into a 24 well plates containing sea water (sw), −ve control (DMSO+sw), +ve control (emetine) or different concentrations of extracts (62.5-500 μg/ml). Assay was carried out in triplicate. The plates were sealed and incubated at 27-28° C. for 24 h. At the end of the 24-h incubation period, the content of each well was pipette into a watch glass individually. Survival was assessed by scoring the number of dead nauplii using a microscope. Once counts of dead nauplii had been taken, 0.5 ml of methanol was added to kill all remaining nauplii. The contents of each well were then recorded and result tabulated as (X/Y; where X number dead and Y=number of dead and alive).

breast cancer cells = settings: cited from earlier work
MDA-MB-435 tumor masses = settings: cited from earlier work
angiogenesis = settings: elicited by basic fibroblast growth factor; cited from earlier work
B16F10 solid tumor = settings: C57BU6 mice; cited from earlier work

Q: For `CC[C@@]1(O)C(=O)OCc2c1cc1n(c2=O)Cc2cc3ccccc3nc2-1` [Camptothecin], which “inhibition of tumor cell proliferation” value (tumor cell lines) is on record?
A: more effective at inhibiting cell proliferation of different cell lines than the snake powder extract

Q: Which results are given for `CC[C@H]1CN2CCc3cc(OC)c(OC)cc3[C@@H]2C[C@@H]1C[C@H]1NCCc2cc(OC)c(OC)cc21` [Emetine]?
A: mortality at 62.5 µg/mL (Artemia salina nauplii; 62.5 μg/ml): 58.2%; mortality at 125 µg/mL (Artemia salina nauplii; 125 μg/ml): 100%; mortality at 250 µg/mL (Artemia salina nauplii; 250 μg/ml): 100%; mortality at 500 µg/mL (Artemia salina nauplii; 500 μg/ml): 100%

Q: Which “cytotoxicity to cancer cells” value (breast cancer cells) does the source give for Contortrostatin here?
A: not cytotoxic to cancer cells

Q: And the “proliferation of the breast cancer cells” value (breast cancer cells; in vitro)?
A: does not inhibit proliferation

Q: And the “angiogenesis induced by breast cancer” value (MDA-MB-435 tumor masses; immunohistochemical quantitation of vascular endothelial cells in tumor tissue)?
A: inhibiting angiogenesis induced by breast cancer

Q: And the “inhibition of tumor growth” value (MDA-MB-435 tumor masses; injected daily at 5 microgram per mouse to tumor masses)?
A: 74%

Q: Which angiogenesis (angiogenesis) does the source give for Rhodostomin here?
A: inhibit angiogenesis

Q: What about the survival (B16F10 solid tumor) of the same molecule?
A: prolonged survival

Q: And the tumor growth (B16F10 solid tumor)?
A: suppressed tumor growth
